Assay results from US11183645B2, “Organic thin film and method for manufacturing organic thin film, organic electroluminescence element, display device, illumination device, organic thin film solar cell, thin film transistor, and coating composition” (NIPPON HOSO KYOKAI, priority 2015, dated 2021).
Like-named read-outs stand apart in the source and are kept apart here.

Assay: acid dissociation constant pKa of the first material
Details: for pKa (H2O): acid dissociation constant in water, first materials of the electron injection layer
Source text: In the present invention, the “pKa” usually means the “acid dissociation constant in water”. When the pKa cannot be measured in water, it means the “acid dissociation constant in dimethyl sulfoxide (DMSO)”, and when the pKa cannot be measured even in DMSO, it means the “acid dissociation constant in acetonitrile”. The pKa preferably means the “acid dissociation constant in water”.

Row | SMILES | pKa (water) | pKa | pKa (H2O)
1 | COc1cccnc1 [3-MeOP, 3-methoxypyridine] | 4.88 | – | –
2 | CN(C)c1ccncc1 [4-DMAP, 4-dimethylaminopyridine] | 9.7 | – | –
3 | C1CCC2=NCCCN2CC1 [DBU, 1,8-diazabicyclo[5.4.0]undecene-7] | – | – | 12.5
4 | CN(C)P(=NC(C)(C)C)(N=P(N(C)C)(N(C)C)N(C)C)N(C)C [Phosphazene base P2-t-Bu] | – | – | 20

More lines, main results first:

Row | pKa (water) | pKa | SMILES | pKa (H2O)
5 | – | ≥ 1 | CN(C)c1ccc2cc3ccc(N(C)C)cc3nc2c1 [AOB, acridine orange] | –
6 | – | ≥ 1 | C1=Cc2ccccc2C1 [indene] | –
